Patent publication US20250034138A1, “Compounds and Compositions as C-Kit Kinase Inhibitors” (Enanta Pharmaceuticals, Inc., priority 2023, published 2025)
pEC50, pIC50: −log10 of the molar value. Where two headings read alike, the source gives them in different places.

Key:
[1] = molecular target: T1, Recombinant human c-KIT kinase (Homo sapiens, UniProt P10721); assay: c-KIT Kinase Chemiluminescence Assay (ADP-Glo); format: biochemical; conditions: recombinant human c-KIT 30-40 nM, ATP 50 μM, polyEY substrate, ADP-Glo luminescence
T1 construct: purchased Promega V4498
Text: Staurosporine (AM-2282) and Imatinib (STI571) were purchased from Selleck Chemicals LLC (Houston, TX). The c-KIT reference compound THB001 (EP-053504) was synthesized by Enanta Pharmaceuticals, Inc. (Watertown, MA). The c-KIT Kinase Enzyme System (V4498) and ADP-Glo™ Kinase Assay kit (V6930) were purchased from Promega (Madison, WI). DMSO (D2650) was purchased from Sigma-Aldrich (Burlington, MA). ECHO-650 acoustic liquid handling system (67492212) and 384-well LDV ECHO source plates (LP-0200) were purchased from Labcyte, Inc (San Jose, CA). Envision Multimode Plate Reader (2104/464466) and ProxiPlate-384 Plus White 384-shallow well microplates (6008280) were purchased from PerkinElmer (Waltham, MA).
1. c-KIT Kinase Chemiluminescence Assay:
IC50 determination. Test compounds were dispersed into a 384-well low volume while ProxiPlate microplate from a DMSO solution using an ECHO 650 acoustic dispenser to generate a 11-point, 3.162-fold dilution, concentration curve starting at 10 μM in duplicate. Kinase Reaction: The kinase assay was based on the recommended protocol by c-KIT Kinase Enzyme System from Promega. Recombinant human c-KIT kinase in 3 μL of assay buffer (40 mM Tris pH 7.5, 20 mM MgCl2, 0.1 mg/mL BSA and 50 μM DTT) was added to the test or high control wells and 3 μL of assay buffer was added to the low control wells. The microplate was centrifuged at 800 rotations per minute (rpm) for 60 s and incubated at room temperature (RT) for 30 min. Next, 2 μL of buffered ATP and polyEY substrate solution was added to all wells. The microplate was centrifuged at 800 rpm for 60 s and incubated at RT for 2 h. The final assay contained c-KIT (30-40 nM), ATP (50 μM), polyEY substrate (0.2 μg/μL), test compounds (0-10 μM) and DMSO (1.7%) in 5 μL assay buffer. ADP detection with ADP-Glo™ Kinase Assay: After the kinase reaction incubation, 5 μL of ADP-Glo™ reagent was added to all wells. The microplate was centrifuged at 800 rpm for 60 s and incubated at RT for 40 min. Ten microliter (10 μL) of Kinase Detection Reagent (Luciferin-Luciferase system) was then added to all wells. The microplate was centrifuged at 800 rpm for 60 s and incubated at RT for 60 min. Kinase activity was measured as increase in luminescence at RT in an Envision plate reader equipped with 560 nm filters and operating in endpoint mode.
Data Analysis: Endpoint chemiluminescence from high and low control wells were used to calculate normalized c-KIT activity at various concentrations of test compounds. The normalized activities were fitted to inhibitor-versus-normalized response fit in GraphPad Prism 7 to determine half-maximal inhibitory concentration (IC50) and hill coefficient values (H).
c-KIT activity (%)=100/(1+I^H/IC50^H). Where I is the inhibitor concentration and H is the Hill coefficient. IC50 ranges are reported as follows: A<100 nM; B 0.1-1 μM; C>1 μM.

[2] = tested on: M-07e cells which endogenously express human c-KIT; assay: M-07e Cellular Assay (SCF-mediated cell proliferation, CellTiter Glo); format: cell-based; conditions: read-out: M-07e EC50
Procedure: 2. M-07e Cellular Assay M-07e cells (Creative Bioarray, CSC-CO249) which endogenously express human c-KIT were used to evaluate the effect of compounds on stem cell factor (SCF)-mediated cell proliferation. M-07e cells were cultured in growth media (RPMI+10% FBS+1% penicillin/streptomycin+10 ng/mL GM-CSF) at 5E5-1.5E6 cells/mL, replenishing media every 3-4 days. 1.5E4 cells were seeded per well in 384 well tissue culture treated plates in 20 μL assay media (RPMI+10% FBS+1% penicillin/streptomycin) without growth factor stimulation and incubated at 37° C. in a CO2 humidity-controlled incubator. Twenty-four hours later, three-fold serially diluted test compounds in media containing SCF (at the previously determined EC90) were added to the plated M-07e cells and incubated for an additional 72 hours. Cell viability was determined by adding 25 μL CellTiter Glo (Promega) to the cells and the luminescence was measured using a Perkin Elmer Envision plate reader. The EC50 was determined using GraphPad Prism. […] EC50 ranges are reported as follows: […]

[3] = SCF (EC90)-stimulated M-07e cell proliferation, 72 hours, CellTiter Glo

T1 sequence (P10721 26-976): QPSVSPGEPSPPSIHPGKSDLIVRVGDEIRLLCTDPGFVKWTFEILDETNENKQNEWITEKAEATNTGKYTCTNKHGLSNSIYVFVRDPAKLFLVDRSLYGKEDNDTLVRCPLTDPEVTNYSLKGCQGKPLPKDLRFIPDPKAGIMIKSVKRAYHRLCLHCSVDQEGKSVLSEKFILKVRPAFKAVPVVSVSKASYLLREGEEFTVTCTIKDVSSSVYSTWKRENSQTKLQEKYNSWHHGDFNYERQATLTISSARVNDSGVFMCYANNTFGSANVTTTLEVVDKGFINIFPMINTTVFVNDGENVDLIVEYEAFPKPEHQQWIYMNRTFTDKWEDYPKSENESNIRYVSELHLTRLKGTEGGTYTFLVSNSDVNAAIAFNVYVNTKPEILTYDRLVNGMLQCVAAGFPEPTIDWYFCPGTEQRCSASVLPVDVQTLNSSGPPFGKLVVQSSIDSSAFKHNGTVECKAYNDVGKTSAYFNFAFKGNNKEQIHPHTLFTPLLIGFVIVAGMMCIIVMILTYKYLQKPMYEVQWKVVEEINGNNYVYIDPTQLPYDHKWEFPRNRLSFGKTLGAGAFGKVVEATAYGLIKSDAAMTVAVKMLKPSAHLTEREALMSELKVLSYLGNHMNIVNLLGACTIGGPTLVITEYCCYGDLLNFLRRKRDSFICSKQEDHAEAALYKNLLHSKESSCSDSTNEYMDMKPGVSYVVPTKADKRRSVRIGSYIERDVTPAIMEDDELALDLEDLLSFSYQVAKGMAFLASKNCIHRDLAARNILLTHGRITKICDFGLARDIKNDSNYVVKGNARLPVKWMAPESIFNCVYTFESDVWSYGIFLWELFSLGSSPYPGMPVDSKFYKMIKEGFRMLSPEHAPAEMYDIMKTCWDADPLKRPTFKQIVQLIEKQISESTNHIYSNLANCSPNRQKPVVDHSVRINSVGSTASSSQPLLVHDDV

Row | Structure (SMILES) | pIC50 [1] | pEC50 [2, 3] | pEC50 ([2]; M-07e, 72 h)
1 | Cc1ccc(-c2nc(C3CC(F)(F)C3)cs2)cc1NC(=O)c1cnc2ccccn12 [Example 4] | > 7.00 | 6.00 to 7.00 | 
2 | Cc1ccc(-n2ncc3ccccc32)cc1NC(=O)c1cnc2ccccn12 [Example 11-13] | < 6.00 |  | 6.00 to 7.00
3 | Cc1ccc(-c2nc3ccccc3n2C)cc1NC(=O)c1cnc2ccccn12 [Example 11-7] | < 6.00 | 6.00 to 7.00 | 
4 | Cc1ccc(-c2nnc([C@H]3C[C@@H]3F)s2)cc1NC(=O)c1cnc2ccccn12 [Example 1] | > 7.00 | > 7.00 | 
5 | Cc1ccc(-n2nnc(-c3ccc(F)cc3)n2)cc1NC(=O)c1cnc2ccccn12 [Example 9-1] | 6.00 to 7.00 | 6.00 to 7.00 | 
6 | Cc1ccc(-c2nc3cc(F)ccc3o2)cc1NC(=O)c1cnc2ccccn12 [Example 11-2] | > 7.00 | > 7.00 | 
7 | Cc1ccc(-c2nc3ccc(C(F)(F)F)cc3[nH]2)cc1NC(=O)c1cnc2ccccn12 [Example 11-9] | > 7.00 | > 7.00 | 
8 | Cc1ccc(-c2nc3ccccc3s2)cc1NC(=O)c1cnc2ccccn12 [Example 11-4] | > 7.00 | 6.00 to 7.00 | 
9 | Cc1ccc(-c2nc3ccc(F)cc3o2)cc1NC(=O)c1cnc2ccccn12 [Example 11-5] | 6.00 to 7.00 | 6.00 to 7.00 | 
10 | Cc1ccc(-c2nnc(C3CC(F)(F)C3)s2)cc1NC(=O)c1cnc2ccccn12 [Example 1-1] | > 7.00 | > 7.00 | 
11 | Cc1ccc(-n2cc(C3CC(F)(F)C3)nn2)cc1NC(=O)c1cnc2ccccn12 [Example 11-12] | > 7.00 | > 7.00 | 
12 | Cc1ccc(-n2nnc(-c3cccc(F)c3)n2)cc1NC(=O)c1cnc2ccccn12 [Example 9-2] | 6.00 to 7.00 | 6.00 to 7.00 | 
13 | Cc1ccc(-c2nc3ccccc3o2)cc1NC(=O)c1cnc2ccccn12 [Example 11-3] | 6.00 to 7.00 | > 7.00 | 
14 | Cc1ccc(-c2nc3ccccc3[nH]2)cc1NC(=O)c1cnc2ccccn12 [Example 11-6] | > 7.00 | > 7.00 | 
15 | Cc1ccc(-c2nc3ccc(F)cc3[nH]2)cc1NC(=O)c1cnc2ccccn12 [Example 11-8] | > 7.00 | > 7.00 | 
16 | Cc1ccc(-n2nnc(C3CC(F)(F)C3)n2)cc1NC(=O)c1cnc2ccccn12 [Example 8] | > 7.00 | > 7.00 | 
17 | Cc1ccc(-c2coc([C@H]3C[C@@H]3F)n2)cc1NC(=O)c1cnc2ccccn12 [Example 11-1] | 6.00 to 7.00 | > 7.00 | 
18 | Cc1ccc(-c2c[nH]c(C3CC(F)(F)C3)n2)cc1NC(=O)c1cnc2ccccn12 [Example 11] | 6.00 to 7.00 | 6.00 to 7.00 | 
19 | Cc1ccc(-c2coc(C3CC(F)(F)C3)n2)cc1NC(=O)c1cnc2ccccn12 [Example 10] | > 7.00 | > 7.00 | 
20 | Cc1ccc(-c2ncc(C3CC(F)(F)C3)n2COCC[Si](C)(C)C)cc1NC(=O)c1cnc2ccccn12 [Example 11-11] | < 6.00 |  | 
21 | Cc1ccc(-c2cn(C3CC(F)(F)C3)nn2)cc1NC(=O)c1cnc2ccccn12 [Example 7] | > 7.00 | > 7.00 | 
22 | Cc1ccc(-c2cnn(C3CC(F)(F)C3)n2)cc1NC(=O)c1cnc2ccccn12 [Example 11-10] | > 7.00 | > 7.00 | 

Second part, led by results:

Row | pIC50 [1] | Structure (SMILES) | pEC50 [2, 3] | pEC50 ([2]; M-07e, 72 h)
23 | 6.00 to 7.00 | Cc1ccc(-c2nc3n(n2)CCN(C(=O)C2CC(F)(F)C2)C3)cc1NC(=O)c1cnc2ccccn12 [Example 6-19] |  | 
24 | 6.00 to 7.00 | Cc1ccc(-c2cn3c(n2)CCCC3)cc1NC(=O)c1cnc2ccccn12 [Example 6-4] | > 7.00 | 
25 | < 6.00 | Cc1ccc(-c2nnc3n2CCCC3)cc1NC(=O)c1cnc2ccccn12 [Example 6-11] |  | 
26 | > 7.00 | Cc1ccc(-c2nc3cc(Cl)ccn3n2)cc1NC(=O)c1cnc2ccccn12 [Example 6-15] | 6.00 to 7.00 | 
27 | 6.00 to 7.00 | Cc1ccc(-c2nc3cccc(C(F)(F)F)n3n2)cc1NC(=O)c1cnc2ccccn12 [Example 6-10] | 6.00 to 7.00 | 
28 | > 7.00 | Cc1ccc(-c2nc3n(n2)C[C@H](C(F)(F)F)CC3)cc1NC(=O)c1cnc2ccccn12 [Example 6-21] | > 7.00 | 
29 | 6.00 to 7.00 | Cc1ccc(-c2nc3n(n2)[C@@H](c2ccccc2)C[C@H]3F)cc1NC(=O)c1cnc2ccccn12 [Example 6-8] | 6.00 to 7.00 | 
30 | < 6.00 | Cc1ccc(-c2nc3n(n2)CCN(C(=O)[C@H]2[C@@H]4CC(F)(F)C[C@@H]42)C3)cc1NC(=O)c1cnc2ccccn12 [Example 6-20] |  | 
31 | > 7.00 | Cc1ccc(-c2nc3ccc(Cl)cn3n2)cc1NC(=O)c1cnc2ccccn12 [Example 6-3] | > 7.00 | 
32 | < 6.00 | Cc1ccc(-c2nc(C3CC3)nn2C)cc1NC(=O)c1cnc2ccccn12 [Example 6-1] | 6.00 to 7.00 | 
33 | 6.00 to 7.00 | Cc1ccc(-c2nc3n(n2)CCNC3)cc1NC(=O)c1cnc2ccccn12 [Example 6-16] | < 6.00 | 
34 | > 7.00 | Cc1ccc(-c2nc3n(n2)CCN(C(=O)OC(C)(C)C)C3)cc1NC(=O)c1cnc2ccccn12 [Example 6-13] | 6.00 to 7.00 | 
35 | > 7.00 | Cc1ccc(-c2nc3cc(C4CC4)ccn3n2)cc1NC(=O)c1cnc2ccccn12 [Example 6-23] | > 7.00 | 
36 | > 7.00 | Cc1ccc(-c2nc3ccc(C(F)(F)F)cn3n2)cc1NC(=O)c1cnc2ccccn12 [Example 6-9] | > 7.00 | 
37 | > 7.00 | Cc1ccc(-c2nc3cc(F)ccn3n2)cc1NC(=O)c1cnc2ccccn12 [Example 6-6] | > 7.00 | 
38 | 6.00 to 7.00 | Cc1ccc(-c2cn3c(n2)CCC3)cc1NC(=O)c1cnc2ccccn12 [Example 6-5] | 6.00 to 7.00 | 
39 | > 7.00 | Cc1ccc(-c2nc3cc(C(F)(F)F)ccn3n2)cc1NC(=O)c1cnc2ccccn12 [Example 6-14] | > 7.00 | 
40 | > 7.00 | Cc1ccc(-c2nc3ccc(F)cn3n2)cc1NC(=O)c1cnc2ccccn12 [Example 6-2] | > 7.00 | 
41 | 6.00 to 7.00 | Cc1ccc(-c2nc(C3CC3)n(C)n2)cc1NC(=O)c1cnc2ccccn12 [Example 6] | 6.00 to 7.00 | 
42 | 6.00 to 7.00 | Cc1ccc(-c2nc3n(n2)CCCC3)cc1NC(=O)c1cnc2ccccn12 [Example 6-12] | 6.00 to 7.00 | 
43 | < 6.00 | Cc1ccc(-c2nc3ccccn3n2)cc1NC(=O)c1cnc2ccccn12 [Example 6-7] |  | 
44 | > 7.00 | Cc1ccc(-c2nnn(C3CC(F)(F)C3)n2)cc1NC(=O)c1cnc2ccccn12 [Example 3] | > 7.00 | 
45 | > 7.00 | Cc1ccc(-c2nc3ccc(C4CC4)cn3n2)cc1NC(=O)c1cnc2ccccn12 [Example 6-24] | > 7.00 | 
46 | < 6.00 | Cc1ccc(-c2nnc(C3CC3)n2C2CC2)cc1NC(=O)c1cnc2ccccn12 [Example 5] | < 6.00 | 
47 | 6.00 to 7.00 | Cc1ccc(-c2nnn(C3CC3)n2)cc1NC(=O)c1cnc2ccccn12 [Example 2] | > 7.00 | 
48 | 6.00 to 7.00 | Cc1ccc(-c2nc3n(n2)CCN(C(=O)[C@H]2C[C@@H]2F)C3)cc1NC(=O)c1cnc2ccccn12 [Example 6-18] | 6.00 to 7.00 | 
